Patent US10675256B2, “Methods for inhibiting conversion of choline to trimethylamine (TMA)” (The Procter & Gamble Company, priority 2017, dated 2020)
Read-outs that look alike come from different tables or passages of the source.

Experiments:
[1] = tested on: Proteus mirabilis 29906 (Pm) lysate; test: Inhibition of formation of TMA from choline in Proteus mirabilis lysate (EXAMPLE 2); type: biochemical; conditions: Proteus mirabilis 29906 lysate, d9-choline chloride substrate, 37° C. for two hours; read-out: TMA Inhibition (IC50, mol/L)
[2] = tested on: human fecal polymicrobial community; test: Human fecal polymicrobial incubation with d9-choline, TMA inhibition (EXAMPLE 3); type: cell-based; conditions: human fecal slurry 0.2% (w/v), 50 μM d9-choline chloride, 20 hours at 37° C., anaerobic; read-out: TMA Inhibition (IC50, mol/L)
Method: Human fecal polymicrobial incubation with deuterium labeled choline compound screening method, including cell viability assay. All materials were pre-reduced in an anaerobic chamber for 24 hours before using in the experiments and experimental procedures were performed under anaerobic conditions (chamber purged with 85% nitrogen, 5% hydrogen, 10% carbon dioxide).
Human fecal samples were collected from a healthy volunteer with no chronic illnesses, blood borne diseases or active infections. The volunteer had not received antibiotics within two months prior to donation and provided written informed consent. Samples were diluted to make a 20% (w/v) fecal slurry by resuspension of the feces in a media containing 3% (w/v) tryptic soy broth, 1% (w/v) trehalose, pH 7.3. The fecal slurry was homogenized and filtered by hand using a stomacher bag with an integrated 170 μm membrane. DMSO (5% (w/v)) was added to the filtered slurry and aliquots were stored in cryogenic vials at −80° C. until use. Frozen fecal slurries were diluted to 0.2% (w/v) with M9 media (Na2HPO4 (6 g/L), KH2PO4 (3 g/L), NaCl (0.5 g/L) with addition of 0.1 mM CaCl2 and 1 mM MgSO4) and dispensed (1 mL) into deep well 96-well plates. Diluted fecal slurries containing 50 μM d9-choline chloride and compounds in doses ranging from 500 μM to 3.81 nM were sealed and incubated at 37° C. with shaking. After 20 hours, an aliquot of the fecal polymicrobial community was analyzed for viability using PrestoBlue cell viability reagent (Thermo Fisher Scientific, USA) as described below. The reaction plates were subsequently centrifuged (4000×g at 4° C. for 12 min) to pellet fecal material and 150 μl aliquots were transferred and quenched with addition of formic acid to 1% (v/v). All fecal processing and polymicrobial assay steps were performed in an anaerobic environment. The products were determined by LC/MS/MS and IC50 values were calculated as described previously for detection and analysis of TMA and d9-TMA in EXAMPLE 2.

plasma TMAO = test: Preclinical screening method, plasma TMAO in mice on 1% choline diet (EXAMPLE 4); type: in vivo, mice (C57bl/6); conditions: 1% Choline Added diet, oral gavage 310 mg/kg/day, 3 days, blood 20 hours post gavage
Method: Starting at day 0, mice (C57bl/6, ˜19 g, 10 wk of age; n=5/group) were maintained in accordance with the NIH guidelines in a 12:12 hr light:dark cycle and provided with 1% Choline Added diet (Envigo custom formulation prepared, similar to Teklad Global Rodent Diet 2018) ad libitum. Concurrent with introduction of the diet, mice were gavaged once daily orally using a 1.5″ 22G ball-tip curved feeding needle to administer compound in 200 μl or less of water at one or multiple of the dose 0, 1.0, 3.1, 10, 31, 100 or 310 mg/kg/day. Urine was collected once daily in the morning. Animals were restrained by hand and bladder was expressed by gentle palpation of the pelvic region. […]
For measurement of TMA in plasma, samples were acidified (10 mM HCl final) prior to storage at −80° C. TMAO and TMA and their d9-isotopologues were quantified using stable isotope dilution HPLC with on-line electrospray ionization tandem mass spectrometry ([…]) methods as described in (Wang Z, Klipfell E, Bennett B J, et al. (2011) Gut flora metabolism of phosphatidylcholine promotes cardiovascular disease. Nature 472:57-63) using d4(1,1,2,2)-choline, d3(methyl)-TMAO, and d3(methyl)-TMA as internal standards. […]

[3] = target: recombinant P. mirabilis Cut C/D lysate (Proteus mirabilis, UniProt B4EYG1); test: Inhibition of conversion of choline to TMA by recombinant P. mirabilis Cut C/D lysate (EXAMPLE 5); type: biochemical
Sequence of recombinant P. mirabilis Cut C/D lysate (B4EYG1 entry or part of it): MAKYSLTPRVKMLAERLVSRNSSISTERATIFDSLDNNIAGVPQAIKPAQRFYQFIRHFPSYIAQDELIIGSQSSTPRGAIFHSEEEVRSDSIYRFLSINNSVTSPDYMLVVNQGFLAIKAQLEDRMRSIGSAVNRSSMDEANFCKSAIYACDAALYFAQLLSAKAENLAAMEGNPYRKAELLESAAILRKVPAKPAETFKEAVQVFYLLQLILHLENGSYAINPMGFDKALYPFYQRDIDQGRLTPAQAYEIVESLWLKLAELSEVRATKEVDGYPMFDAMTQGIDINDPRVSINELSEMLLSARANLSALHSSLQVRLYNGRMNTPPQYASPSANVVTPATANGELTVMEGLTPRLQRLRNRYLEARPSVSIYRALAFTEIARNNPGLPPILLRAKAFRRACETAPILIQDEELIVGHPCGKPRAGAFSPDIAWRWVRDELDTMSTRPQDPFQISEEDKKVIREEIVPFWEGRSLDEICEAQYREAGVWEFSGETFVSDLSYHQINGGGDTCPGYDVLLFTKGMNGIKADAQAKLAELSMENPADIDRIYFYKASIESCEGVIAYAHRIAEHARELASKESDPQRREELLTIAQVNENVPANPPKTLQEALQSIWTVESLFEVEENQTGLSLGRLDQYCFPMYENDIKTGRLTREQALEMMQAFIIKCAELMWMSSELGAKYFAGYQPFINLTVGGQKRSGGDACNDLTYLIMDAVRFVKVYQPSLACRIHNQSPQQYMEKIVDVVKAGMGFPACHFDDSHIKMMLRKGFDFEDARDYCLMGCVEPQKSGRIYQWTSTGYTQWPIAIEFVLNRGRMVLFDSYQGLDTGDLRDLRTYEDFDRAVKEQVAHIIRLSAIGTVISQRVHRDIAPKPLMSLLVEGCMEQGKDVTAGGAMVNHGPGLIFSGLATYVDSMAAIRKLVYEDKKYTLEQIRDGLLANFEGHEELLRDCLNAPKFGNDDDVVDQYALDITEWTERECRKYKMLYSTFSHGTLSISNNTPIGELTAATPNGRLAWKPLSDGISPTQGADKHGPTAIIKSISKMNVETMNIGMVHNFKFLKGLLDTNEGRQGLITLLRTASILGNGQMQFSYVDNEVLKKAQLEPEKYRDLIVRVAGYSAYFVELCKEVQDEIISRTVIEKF
Sequence of recombinant P. mirabilis Cut C/D lysate (B4EYG0 entry or part of it, further chain): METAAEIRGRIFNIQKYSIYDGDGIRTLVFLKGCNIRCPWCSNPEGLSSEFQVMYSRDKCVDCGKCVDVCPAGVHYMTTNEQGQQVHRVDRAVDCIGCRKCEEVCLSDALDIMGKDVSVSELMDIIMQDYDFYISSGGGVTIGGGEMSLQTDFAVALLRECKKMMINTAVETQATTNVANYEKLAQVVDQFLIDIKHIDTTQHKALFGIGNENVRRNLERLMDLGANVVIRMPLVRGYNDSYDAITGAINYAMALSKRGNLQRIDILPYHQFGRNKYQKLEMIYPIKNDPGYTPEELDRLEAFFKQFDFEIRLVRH
Method: (§1) Ability of compounds to inhibit the conversion of choline to TMA in cell lysates or whole cells were determined using methods as described in Wang, Z, Roberts, A B, Buffa J A, et al. (2015) Non-lethal inhibition of gut microbial trimethylamine production for the treatment of atherosclerosis, Cell 163: 1585-1595. Briefly, efficacy was measured as IC50 (nM) by inhibition of conversion of choline to TMA metabolized by recombinant P. mirabilis Cut C/D lysate; recombinant D. alaskensis Cut C/D lysate, or whole cell wild-type P. mirabilis.

[4] = target: T1, recombinant D. alaskensis Cut C/D lysate (Oleidesulfovibrio alaskensis, UniProt Q30W70); test: Inhibition of conversion of choline to TMA by recombinant D. alaskensis Cut C/D lysate (EXAMPLE 5); type: biochemical
T1 construct: made in house
T1 sequence (Q30W70 whole entry): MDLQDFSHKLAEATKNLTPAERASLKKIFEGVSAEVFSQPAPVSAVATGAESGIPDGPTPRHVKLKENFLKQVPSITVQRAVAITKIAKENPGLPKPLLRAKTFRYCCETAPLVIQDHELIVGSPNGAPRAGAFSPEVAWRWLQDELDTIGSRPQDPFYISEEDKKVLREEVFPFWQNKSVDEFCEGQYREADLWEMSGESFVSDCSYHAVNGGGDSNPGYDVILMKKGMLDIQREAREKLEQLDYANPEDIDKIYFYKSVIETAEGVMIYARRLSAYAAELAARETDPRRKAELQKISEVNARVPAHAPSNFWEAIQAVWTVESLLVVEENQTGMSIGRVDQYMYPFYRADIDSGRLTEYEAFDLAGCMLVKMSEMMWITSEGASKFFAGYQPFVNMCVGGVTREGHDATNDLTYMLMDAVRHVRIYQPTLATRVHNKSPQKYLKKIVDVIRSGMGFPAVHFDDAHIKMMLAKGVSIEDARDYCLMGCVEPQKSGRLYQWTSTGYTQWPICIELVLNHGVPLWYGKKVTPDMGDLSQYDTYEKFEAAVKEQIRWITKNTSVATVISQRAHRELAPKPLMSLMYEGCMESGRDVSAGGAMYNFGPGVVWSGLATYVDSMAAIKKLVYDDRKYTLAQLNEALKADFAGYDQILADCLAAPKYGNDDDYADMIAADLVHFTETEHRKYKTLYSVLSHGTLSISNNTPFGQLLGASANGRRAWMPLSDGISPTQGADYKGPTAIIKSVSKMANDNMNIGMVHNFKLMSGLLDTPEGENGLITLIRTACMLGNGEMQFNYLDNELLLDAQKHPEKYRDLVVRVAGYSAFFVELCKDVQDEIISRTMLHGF
Method: as §1

[5] = tested on: whole cell wild-type P. mirabilis; test: Inhibition of conversion of choline to TMA by whole cell wild-type P. mirabilis (EXAMPLE 5); type: cell-based; conditions: Proteus mirabilis, read-out: EC50 (mol/L) whole cell wild-type P. mirabilis
Method: as §1

[6] = tested on: conversion of choline to TMA; test: Rapid preclinical method, d9-choline challenge in mice (EXAMPLE 6); type: in vivo; conditions: oral gavage with 2 mg d9-Choline, plasma at 3 hr
Method: Challenge: C57bl/6 female mice (8 wk of age ˜20 g BW) were maintained in accordance with the NIH guidelines in a 12:12 hr light:dark cycle on normal chow diet were placed in a clean cage without food ˜1 hr prior to gavage. […] Food was returned after a 2 hr fast (1 hr after gavage administration). Blood (30 μL) was collected into a heparinized capillary tube 2, 3 and 4 hours after gavage. Blood was kept at 4° C., then spun using a centrifuge (5 min in centrifuge designed to capillary tubes) to separate plasma and hematocrit within 4 hours after collection. Plasma samples were stored at −80° C. Concentration of d9 Choline, d9TMA and d9TMAO was measured by LC-MS/MS.
Flora Normalization: Twenty four hours post-gavage mice were placed in a clean cage and fecal material from conventional mice was spread in all the cages.

C[N+](C)(CC(N)=O)C1CC1 [compound 8, N-(2-amino-2-oxoethyl)-N,N-dimethylcyclopropanaminium]
IC50 [1]: 202 µM

COC(=O)C[N+](C)(C)C1CC1 [compound 4, N-(2-methoxy-2-oxoethyl)-N,N-dimethylcyclopropanaminium]
IC50 [1]: 89.2 µM
IC50 [2]: 134 µM

C#CC[N+](C)(C)C1CC1 [ID 3, N,N-dimethyl-N-(prop-2-yn-1-yl)cyclopropanaminium bromide]
Remaining plasma TMAO as a percentage of plasma TMAO in same day vehicle control (% of control remaining) (plasma TMAO): 23%
IC50 [3]: 0.15 µM
IC50 [4]: 0.11 µM
EC50 ([5]; inhibition of conversion of choline to TMA): 0.038 µM
Calculated EC50 (mg/kg) compared to Vehicle Control [6]: 0.04 mg/kg

C=C(C[N+](C)(C)C1CC1)C(=O)OC [compound 5, N-(2-(methoxycarbonyl)allyl)-N,N-dimethylcyclopropanaminium]
IC50 [1]: 50.4 µM
IC50 [2]: 166 µM

COC(=O)C(=O)C[N+](C)(C)C1CC1 [compound 6, N-(3-methoxy-2,3-dioxopropyl)-N,N-dimethylcyclopropanaminium]
IC50 [1]: 4.65 µM

CCOC(=O)CCCCC[N+](C)(C)C1CC1 [compound 9, N-(6-ethoxy-6-oxohexyl)-N,N-dimethylcyclopropanaminium]
IC50 [1]: 945 µM

C[N+](C)(CCO)C1CC1 [compound 1]
IC50 [1]: 0.000251 µM
IC50 [2]: 135 µM

C#CC[N+](C)(C)C1CC1 [compound 3, N,N-dimethyl-N-(prop-2-yn-1-yl)cyclopropanaminium]
IC50 [1]: 0.0331 µM
IC50 [2]: 0.428 µM

C[N+](C)(CCO)C1CC1 [ID 1, Cyclopropane-dimethyl-ethanolamine iodide]
Remaining plasma TMAO as a percentage of plasma TMAO in same day vehicle control (% of control remaining) (plasma TMAO): 5%
IC50 [3]: 0.0062 µM
IC50 [4]: 0.087 µM
EC50 [5]: 0.0481 µM
Calculated EC50 (mg/kg) compared to Vehicle Control [6]: 0.75 mg/kg

C=CC[N+](C)(C)C1CC1 [compound 2, N-allyl-N,N-dimethylcyclopropanaminium]
IC50 [1]: 0.00398 µM
IC50 [2]: 53.2 µM

C[N+](C)(CF)C1CC1 [N-(fluoromethyl)-N,N-dimethylcyclopropanaminium iodide]
IC50 [1]: 60 µM
IC50 [3]: 21 µM
IC50 [4]: 45 µM

C#CC[N+]1(C2CC2)CCOCC1 [compound 10, 4-cyclopropyl-4-(prop-2-yn-1-yl)morpholin-4-ium]
IC50 [1]: 1.28 µM
